Here are results for 13 molecules from patent US9498479B2, “Dihydropyrimidine compounds and their application in pharmaceuticals” (SUNSHINE LAKE PHARMA CO., LTD., priority 2013, dated 2016).

Usually EC50 stands for the concentration at which the effect is half-maximal. As a reminder, the clearance is a measure of how efficiently the substance is removed, as volume per time. What is called half-life is the time needed for the level to fall by half in the phase considered. By AUC(0-t) is commonly meant the area under the concentration-time curve up to a stated or last time point. For orientation: AUC(0-inf) means the area under the concentration-time curve extrapolated to infinity. Broadly, the Cmax is the maximum level reached in the sampled fluid or tissue. A word on the Tmax: it is the time at which the peak concentration occurs. The term Vss denotes the apparent volume that relates the amount in the body to the concentration in plasma or blood. Low values mean confinement near the circulation, high ones extensive tissue distribution.

In one data set the test system is HBV. Nature of the data set: In-vitro anti-HBV activity in stable HBV-producing cell line (HepG2.2.15), HBV DNA in culture fluid by qPCR. The class given is cell-based. The note with it: Hepatitis B virus, 168 h; HepG2.2.15 cells, HBV DNA in culture media on day 7, qPCR. The protocol: Specific procedures are as follows:
HepG2.2.15 cells were seeded into each well of 96-well plates, 40,000 cells per well. Cells were treated with cell culture medium containing compounds with different concentrations 24 hours after cell seeding. The final concentration of each compound was 16.4 μM in each well and each compound was diluted to desired concentration using 3-fold gradient dilution protocol, 9 diluted points in duplicate. The culture mediums containing the compounds were refreshed on day 4 post cell seeding. Culture media were collected from the HepG2.2.15 plates on day 7 post cell seeding followed by HBV DNA extraction.
HBV DNA extraction: The HBV DNA extraction was performed using QIAamp 96 DNA Blood Kit (QIAGEN 51161).
PCR for quantification: PCR mix was prepared according to PCR system. PCR mix was dispensed to 96-well optical reaction plates (special for quantification). The standard diluted proportionally was added. Then the sample was added; The plates were sealed with optical adhesive film; PCR system was performed according to programs.
Percentage of HBV inhibition of DNA replication by compound was calculated using the following equation: % Inh.=[1-HBV DNA quantity of sample/HBV DNA quantity of DMSO control]*100.
Calculating EC50 value of compounds to HBV replication: the EC50 values were calculated based on “four-parameter logistic equation” and using GraphPad Prism 5 analysis software.

Data set [1] can be described thus: Test compounds' PK assay in ICR mice. The class given is in vivo. The note with it: for AUC(0-t): AUC in 0-24 hours; for AUC(0-inf): AUC in 0 hour to infinite time; for Vd: read-out: Vss. Here is the method:
The test compounds were poured into ICR mice stomach through mouth with 10 mg/kg or 5 mg/kg, or administered 2 mg/kg to ICR mice by tail-intravenous injection. Blood sample of orbital vein was taken at 0.083, 0.25, 0.5, 1, 2, 4, 6, 8 and 24 hours after administration, and collected in anticoagulation tube added with EDTA-K2. The test compounds were extracted from plasma samples and chromatographed on a tandem mass spectrometer. Quantitation was performed using multiple reaction monitoring (MRM). Pharmacokinetic parameters were calculated using WinNonlin 6.3 software with non compartment model.

The mark [2] stands for this setting: ICR mice, po 5 mg/kg vs iv 2 mg/kg, calculated by the AUClast.
Setting [3] is: mouse, plasma, ICR mice, iv, 2 mg/kg.
The mark [4] stands for this setting: mouse, plasma, ICR mice, iv, 2 mg/kg, read-out: Cmax.
Where [5] appears, read: mouse, plasma, ICR mice, iv, 2 mg/kg, read-out: Tmax.
[6] abbreviates: mouse, plasma, ICR mice, po, 5 mg/kg.
Setting [7] is: mouse, plasma, ICR mice, po, 5 mg/kg, read-out: Cmax.
[8] abbreviates: mouse, plasma, ICR mice, po, 5 mg/kg, read-out: Tmax.

Structures are written as SMILES. Read-outs that look alike come from different tables or passages of the source.

Molecule `CCOC(=O)C1=C(CN2CC(F)(F)C[C@H]2CCC(=O)O)NC(c2nccn2C)=NC1c1ccc(F)cc1Br` (stereo partly drawn) [Example 7, 3-((2R)-1-((6-(2-bromo-4-fluorophenyl)-5-(ethoxycarbonyl)-2-(1-methyl-1H-imidazol-2-yl)-3,6-dihydropyrimidin-4-yl)methyl)-4,4-difluoropyrrolidin-2-yl)propanoic acid] registered an EC50 in the data set with HBV of 65 nM.

In the case of `CCOC(=O)C1=C(CN2CC(F)(F)C[C@H]2CCC(=O)O)NC(c2nccs2)=N[C@H]1c1ccc(F)cc1Br` [Example 6, 3-((R)-1-(((R)-6-(2-bromo-4-fluorophenyl)-5-(ethoxycarbonyl)-2-(thiazol-2-yl)-3,6-dihydropyrimidin-4-yl)methyl)-4,4-difluoropyrrolidin-2-yl)propanoic acid], in data set [1] (setting [2]), the F is given as 59.3%. For the same molecule, the “absorption after intragastric administration (in words)” value (from here on “absorption”) in data set [1] (ICR mice, po, 5 mg/kg) is given as “rapidly absorbed”. Besides, in data set [1] (setting [3]), the clearance was 10.2 mL/min/kg, the half-life was 46.2 min, the AUC(0-t) stood at 3270 ng·h/mL and the AUC(0-inf) is 3270 ng·h/mL. In data set [1] (setting [3]), the Vd came to 0.38 L/kg. In data set [1] (setting [4]), the Cmax turned out to be 6560 ng/mL. In addition, the Tmax in data set [1] (setting [5]) came out at 4.8 min. Besides, in data set [1] (setting [6]), the half-life was 188 min, the AUC(0-t) came out at 4840 ng·h/mL and the AUC(0-inf) came out at 4850 ng·h/mL. In data set [1] (setting [7]), the Cmax is 5410 ng/mL. For the same molecule, the Tmax in data set [1] (setting [8]) turned out to be 15 min.

Regarding `CCOC(=O)C1=C(CN2CC(F)(F)C[C@H]2C(C)CC(=O)O)NC(c2nccs2)=N[C@H]1c1ccc(F)cc1Br` (stereo partly drawn) [Example 9, 3-((S)-1-(((R)-6-(2-bromo-4-fluorophenyl)-5-(ethoxycarbonyl)-2-(thiazol-2-yl)-3,6-dihydropyrimidin-4-yl)methyl)-4,4-difluoropyrrolidin-2-yl)butanoic acid], the F in data set [1] (setting [2]) is on record as 60.2%. The “absorption” value in data set [1] (ICR mice, po, 5 mg/kg) is “rapidly absorbed”. In data set [1] (setting [3]), this molecule had a clearance of 10.3 mL/min/kg, a half-life of 82.2 min, an AUC(0-t) of 3230 ng·h/mL and an AUC(0-inf) of 3240 ng·h/mL. Besides, in data set [1] (setting [3]), the Vd is 0.33 L/kg. Also, the Cmax in data set [1] (setting [4]) stood at 6270 ng/mL. In addition, in data set [1] (setting [5]), the Tmax is 4.8 min. Further, in data set [1] (setting [6]), the half-life is 63.6 min, the AUC(0-t) turned out to be 4860 ng·h/mL and the AUC(0-inf) was found to be 4870 ng·h/mL. Besides, in data set [1] (setting [7]), the Cmax is 5460 ng/mL. Further, the Tmax in data set [1] (setting [8]) was determined as 15 min.

Molecule `COC(=O)C1=C(CN2CC(F)(F)C[C@H]2CCC(=O)O)NC(c2nccs2)=N[C@H]1c1ccc(F)cc1Br` [Example 14, 3-((R)-1-(((R)-6-(2-bromo-4-fluorophenyl)-5-(methoxycarbonyl)-2-(thiazol-2-yl)-3,6-dihydropyrimidin-4-yl)methyl)-4,4-difluoropyrrolidin-2-yl)propanoic acid] came in with an EC50 in the data set on HBV of 80 nM. This lies in the double-digit nanomolar range.

In the case of `COC(=O)C1=C(CN2CC(F)(F)C[C@H]2CCC(=O)O)NC(c2nccs2)=N[C@H]1c1ccc(F)cc1Cl` [Example 15, 3-((R)-1-(((R)-6-(2-chloro-4-fluorophenyl)-5-(methoxycarbonyl)-2-(thiazol-2-yl)-3,6-dihydropyrimidin-4-yl)methyl)-4,4-difluoropyrrolidin-2-yl)propanoic acid], in the data set on HBV, the EC50 was 94 nM.

On to `CCOC(=O)C1=C(CN2CC(F)(F)C[C@@H]2CCC(=O)O)NC(c2nccs2)=N[C@H]1c1ccc(Cl)cc1Cl` [Example 21, 3-((S)-1-(((R)-6-(2,4-dichlorophenyl)-5-(ethoxycarbonyl)-2-(thiazol-2-yl)-3,6-dihydropyrimidin-4-yl)methyl)-4,4-difluoropyrrolidin-2-yl)propanoic acid], for which, in the data set with HBV, it took 9 nM to reach a half-maximal effect (EC50). This EC50 lies about 10-fold lower than the previous one.

For the molecule `CCOC(=O)C1=C(CN2CC(F)(F)C[C@H]2CCC(=O)O)NC(c2nccs2)=N[C@H]1c1ccc(Cl)cc1Cl` [Example 13, 3-((R)-1-(((R)-6-(2,4-dichlorophenyl)-5-(ethoxycarbonyl)-2-(thiazol-2-yl)-3,6-dihydropyrimidin-4-yl)methyl)-4,4-difluoropyrrolidin-2-yl)propanoic acid], the EC50 in the data set on HBV worked out at 64 nM.

In the case of `COC(=O)C1=C(CN2CC(F)(F)C[C@@H]2CCC(=O)O)NC(c2nccs2)=N[C@H]1c1ccc(F)cc1Br` [Example 18, 3-((S)-1-(((R)-6-(2-bromo-4-fluorophenyl)-5-(methoxycarbonyl)-2-(thiazol-2-yl)-3,6-dihydropyrimidin-4-yl)methyl)-4,4-difluoropyrrolidin-2-yl)propanoic acid], a half-maximal response with HBV (EC50) required 14 nM.

For the molecule `COC(=O)C1=C(CN2CC(F)(F)C[C@@H]2CCC(=O)O)NC(c2nccs2)=N[C@H]1c1ccc(F)cc1Cl` [Example 20, 3-((S)-1-(((R)-6-(2-chloro-4-fluorophenyl)-5-(methoxycarbonyl)-2-(thiazol-2-yl)-3,6-dihydropyrimidin-4-yl)methyl)-4,4-difluoropyrrolidin-2-yl)propanoic acid], in the data set on HBV, the EC50 came to 17 nM.

`COC(=O)C1=C(CN2CC(F)(F)C[C@H]2CCC(=O)O)NC(c2nccs2)=N[C@H]1c1ccc(Cl)cc1Cl` [Example 16, 3-((R)-1-(((R)-6-(2,4-dichlorophenyl)-5-(methoxycarbonyl)-2-(thiazol-2-yl)-3,6-dihydropyrimidin-4-yl)methyl)-4,4-difluoropyrrolidin-2-yl)propanoic acid]: the EC50 with HBV came out at 62 nM.

The molecule `CCOC(=O)C1=C(CN2CCOCC2)NC(c2nccs2)=NC1c1ccc(F)cc1Br` (centres unmarked) [R, Ethyl4-(2-bromo-4-fluorophenyl)-2-(thiazol-2-yl)-6-((4-morpholino)methyl)-1,4-dihydropyrimidine-5-carboxylate, reference compound] had a F in data set [1] (mouse, in vivo) of 7.75%. In data set [1] (mouse, in vivo, iv, 2 mg/kg), the AUCINF is 381.2 ng·h/mL, the AUClast stood at 379.13 ng·h/mL, the CL is 87.5 mL/min/kg and the Cmax was determined as 654.37 ng/mL. Besides, in data set [1] (mouse, in vivo, iv, 2 mg/kg), the time of peak concentration (Tmax) is 4.98 min, the Vss is 7.91 L/kg and the t1/2 amounted to 172 min. In data set [1] (mouse, in vivo, po, 10 mg/kg), the AUCINF was found to be 147.71 ng·h/mL, the AUClast came out at 145.05 ng·h/mL, the Cmax is recorded as 78.2 ng/mL and the time of peak concentration (Tmax) is 15 min. In data set [1] (mouse, in vivo, po, 10 mg/kg), this molecule returned a t1/2 of 221 min.

As for `CCOC(=O)C1=C(CN2CC(F)C(C)(C)C2CCC(=O)O)NC(c2nccs2)=N[C@H]1c1ccc(F)cc1Br` (stereo partly drawn) [Example 39, 3-(1-(((R)-6-(2-bromo-4-fluorophenyl)-5-(ethoxycarbonyl)-2-(thiazol-2-yl)-3,6-dihydropyrimidin-4-yl)methyl)-4-fluoro-3,3-dimethylpyrrolidin-2-yl)propanoic acid], the F in data set [1] (setting [2]) is listed as 86.1%. Moreover, in data set [1] (ICR mice, po, 5 mg/kg), the “absorption” value is recorded as “rapidly absorbed”. For the same molecule, in data set [1] (setting [3]), the clearance is 5.67 mL/min/kg, the half-life was 193 min, the AUC(0-t) is 5800 ng·h/mL and the AUC(0-inf) came out at 5810 ng·h/mL. Also, the Vd in data set [1] (setting [3]) turned out to be 0.73 L/kg. Moreover, the Cmax in data set [1] (setting [4]) worked out at 4260 ng/mL. Besides, in data set [1] (setting [5]), the Tmax was 4.8 min. Besides, in data set [1] (setting [6]), the half-life is 133 min, the exposure AUC(0-t) was found to be 12500 ng·h/mL and the total exposure AUC(0-inf) came out at 12500 ng·h/mL. Further, the Cmax in data set [1] (setting [7]) was found to be 4900 ng/mL. Besides, in data set [1] (setting [8]), the Tmax worked out at 30 min.

With `CCOC(=O)C1=C(CN2CC(F)(F)C[C@H]2CC(C)C(=O)O)NC(c2nccs2)=N[C@H]1c1ccc(F)cc1Br` (stereo partly drawn) [Example 8, 3-((R)-1-(((R)-6-(2-bromo-4-fluorophenyl)-5-(ethoxycarbonyl)-2-(thiazol-2-yl)-3,6-dihydropyrimidin-4-yl)methyl)-4,4-difluoropyrrolidin-2-yl)-2-methylpropanoic acid], the F in data set [1] (setting [2]) is listed as 69.3%. Further, in data set [1] (ICR mice, po, 5 mg/kg), the “absorption” value is “rapidly absorbed”. For the same molecule, in data set [1] (setting [3]), the clearance is 11.5 mL/min/kg, the half-life was 81 min, the AUC(0-t) amounted to 2860 ng·h/mL and the AUC(0-inf) turned out to be 2870 ng·h/mL. Further, in data set [1] (setting [3]), the Vd was found to be 0.39 L/kg. Further, in data set [1] (setting [4]), the Cmax came to 5790 ng/mL. Besides, the Tmax in data set [1] (setting [5]) stood at 4.8 min. Further, in data set [1] (setting [6]), the half-life was 63 min, the AUC(0-t) amounted to 4960 ng·h/mL and the AUC(0-inf) was 4970 ng·h/mL. The Cmax in data set [1] (setting [7]) was 4820 ng/mL. In addition, the Tmax in data set [1] (setting [8]) came out at 15 min.
